# Article PMC9604401 (International Journal of Molecular Sciences, 2022)
# Read-outs that look alike come from different tables or passages of the source.
# What was measured:
# [1] = target: T1, SARS-CoV-2 nsp1_10-126 (Severe acute respiratory syndrome coronavirus 2, UniProt P0DTD1); assay: Microscale thermophoresis (MST) binding affinity
# [2] = target: SARS-CoV-1 nsp1 (Severe acute respiratory syndrome coronavirus, UniProt P0C6X7); assay: biochemical; type: binding
# [3] = target: MERS nsp1 (Middle East respiratory syndrome-related coronavirus, UniProt K9N7C7); assay: biochemical; type: binding
# [4] = target: T1, SARS-CoV-2 nsp1_10-126; assay: Thermal shift assay (TSA) by nanoDSF; type: binding; conditions: 4 mM fragment; for TSA effect on unfolding of the protein, in words / TSA Ti ± SD: 2.0% DMSO; for TSA |ΔTi|-3SD: > 0 regarded as statistically significant; for TSA ΔTi: Ti (protein-fragment) − Ti (protein-DMSO), control Ti 54.05 °C in 2.0% DMSO; for TSA Ti ± SD: nanoDSF, 1.25 mg/mL protein, n = 3, APUC = atypical protein unfolding curve
# From the text: For TSA, nsp1 in the presence of an equal concentration of DMSO was used as a control to offset the influence of DMSO on the protein. The averaged change of inflection temperature (△Ti) of the protein in the presence of fragments higher than three-fold of standard deviation (|△Ti|-3*SD > 0) was regarded as statistically significant. […] In this regard, TSA may not be suitable yet for the validation of hits against SARS-CoV-2 nsp1_10-126, as we have recently also observed for another SARS-CoV-2 protein, nsp10 [41]. With respect to physicochemical properties, calculated values for fragments are well within the expected range, indicating good starting points for structure-based drug design.
# The protein concentration used in this assay was determined by analysing the unfolding curves of SARS-CoV-2 nsp1_10-126 at different concentrations in the presence of 2% DMSO. Fragments dissolved in DMSO (200 mM stocks) were diluted in buffer E supplied with 0.05% Pluronic® F-127 and mixed with nsp1_10-126. The final concentration of fragments was 4 mM containing 2.0% DMSO, while the final protein concentration was 1.25 mg/mL. After centrifugation for 5 min at 6000 rpm, the samples were loaded into Tycho NT.6 capillaries (TY-C001, NanoTemper, München, Germany) with 1.25 mg/mL SARS-CoV-2 nsp1_10-126 in the presence of 2% DMSO as control and measured by the Tycho NT.6 instrument (NanoTemper, München, Germany) in triplicate. The resulting Ti values are presented as means ± SD (n = 3) and the △Ti values for each sample were calculated with the following equation. △Ti = Ti (protein-fragment) − Ti (protein-DMSO)
# Chain of MERS nsp1 (K9N7C7 2-193 limits assumed): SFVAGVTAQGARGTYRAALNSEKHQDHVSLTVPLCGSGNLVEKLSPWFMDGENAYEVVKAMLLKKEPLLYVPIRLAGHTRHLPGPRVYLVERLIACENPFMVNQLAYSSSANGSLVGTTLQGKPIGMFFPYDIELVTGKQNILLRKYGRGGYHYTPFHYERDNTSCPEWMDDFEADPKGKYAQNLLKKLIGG
SMILES,Kd [1] [mM],Kd [2] [mM],Kd [3] [mM],"TSA effect on unfolding of the protein, in words [4]",TSA |ΔTi|-3SD [4] [°C],TSA ΔTi [4] [°C],TSA Ti ± SD [4],"Kd ([1]; read-out: SARS-CoV-2 nsp1 MST, Kd) [mM]","Cross-binding to SARS-CoV-1 nsp1 by MST, in words [2]","SARS-CoV-1 nsp1 MST, Kd [2]","MERS nsp1 MST, Kd [3]","Cross-binding to MERS nsp1 by MST, in words [3]"
OCCNCc1ccccc1 [Fragment 8E6],8.32 ± 3.32,> 20,> 20,Destabilisation effects,0.67,−1.33,52.72 ± 0.22 °C,,,,,
C[C@H](N)c1ccc(Cl)cc1 [Fragment 7H2],> 20,,,Destabilisation effects,,−0.50,53.55 ± 0.25 °C,> 20,no binding,n.i.,n.i,
Nc1nc(-c2ccc(O)cc2)cs1 [Fragment 10B6],0.56 ± 0.19,> 20,4.92 ± 4.19,Destabilisation effects,2.33,−2.79,51.27 ± 0.15 °C,,,,,moderate binding affinity
CNCc1csc(-c2cccc(Cl)c2)n1 [Fragment 11C6],1.16 ± 0.22,0.38 ± 0.14,,Destabilisation effects,0.13,−0.27,53.78 ± 0.05 °C,,strong cross-binding effects,,n.i.,
CNCc1ccc(-c2cccs2)cc1 [Fragment 5E11],0.48 ± 0.3,12.8 ± 24.1,> 20,atypical unfolding curves,,,APUC,,,,,
